# Experimental data reported in patent US20210316013A1, “HAEMATOPOIETIC STEM CELL-GENE THERAPY FOR WISKOTT-ALDRICH SYNDROME” (priority 2018, published 2021).
# Test system: Jurkat cells
# Experiment: Titration of 6TG dosing window, Jurkat cell viability
# Assay type: cell-based
# Conditions: 6TG 0.01-100 μM, viability after 2 days, cell counter TC20
# Procedure: Jurkat cells were incubated in a 96-well plate with different concentrations of 6TG (0.01-100 μM). After 2 days, viability of the cells was measured with cell counter TC20. Optimal 6TG dose for Jurkat cells was estimated to be approx. 504. A nominal concentration of 2.5 μM 6TG was elected for subsequent chemo-selection experiments. The results are illustrated in FIG. 20A.
smiles,measurement,value
"Nc1nc2nc[nH]c2c(=S)[nH]1 [Candidate 6TG, 6-thioguanine]",Optimal 6TG dose for Jurkat cells,approx. 504
